Data set [1] concerns neonatal rat ventricular cardiomyocytes (NVCM). Description: Inherent toxicity (LDH release) in NVCM. In kind it is cell-based. Also on record: key to LDH release (inherent toxicity), mean of independent replicates: % of total LDH activity. Particulars: for LTC = lowest toxic concentration / LDH release (inherent toxicity), mean of independent replicates: NVCM; for LTC = lowest toxic concentration: compound alone, n=4. In short, it runs like this: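 Primary neonatal Wistar rat cardiomyocytes in serum- and pyruvate-free DMEM/F12 were pretreated with compound 3 h, then co-incubated 3 h with DAU (1.2 µM), or without DAU for inherent toxicity, then given a 48 h drug-free follow-up. Medium LDH activity (NAD+ reduction at 340 nm) expressed as % of total LDH.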

The target in a further data set is T1, recombinant human TOP2B (Homo sapiens, UniProt Q02880).
T1 construct: Using recombinant full-length human TOP2A and TOP2B enzymes; YFP (N, cleaved yes); made in house; host or cells: HEK293F
T1 sequence (Q02880 1-1621 isoform Q02880-2): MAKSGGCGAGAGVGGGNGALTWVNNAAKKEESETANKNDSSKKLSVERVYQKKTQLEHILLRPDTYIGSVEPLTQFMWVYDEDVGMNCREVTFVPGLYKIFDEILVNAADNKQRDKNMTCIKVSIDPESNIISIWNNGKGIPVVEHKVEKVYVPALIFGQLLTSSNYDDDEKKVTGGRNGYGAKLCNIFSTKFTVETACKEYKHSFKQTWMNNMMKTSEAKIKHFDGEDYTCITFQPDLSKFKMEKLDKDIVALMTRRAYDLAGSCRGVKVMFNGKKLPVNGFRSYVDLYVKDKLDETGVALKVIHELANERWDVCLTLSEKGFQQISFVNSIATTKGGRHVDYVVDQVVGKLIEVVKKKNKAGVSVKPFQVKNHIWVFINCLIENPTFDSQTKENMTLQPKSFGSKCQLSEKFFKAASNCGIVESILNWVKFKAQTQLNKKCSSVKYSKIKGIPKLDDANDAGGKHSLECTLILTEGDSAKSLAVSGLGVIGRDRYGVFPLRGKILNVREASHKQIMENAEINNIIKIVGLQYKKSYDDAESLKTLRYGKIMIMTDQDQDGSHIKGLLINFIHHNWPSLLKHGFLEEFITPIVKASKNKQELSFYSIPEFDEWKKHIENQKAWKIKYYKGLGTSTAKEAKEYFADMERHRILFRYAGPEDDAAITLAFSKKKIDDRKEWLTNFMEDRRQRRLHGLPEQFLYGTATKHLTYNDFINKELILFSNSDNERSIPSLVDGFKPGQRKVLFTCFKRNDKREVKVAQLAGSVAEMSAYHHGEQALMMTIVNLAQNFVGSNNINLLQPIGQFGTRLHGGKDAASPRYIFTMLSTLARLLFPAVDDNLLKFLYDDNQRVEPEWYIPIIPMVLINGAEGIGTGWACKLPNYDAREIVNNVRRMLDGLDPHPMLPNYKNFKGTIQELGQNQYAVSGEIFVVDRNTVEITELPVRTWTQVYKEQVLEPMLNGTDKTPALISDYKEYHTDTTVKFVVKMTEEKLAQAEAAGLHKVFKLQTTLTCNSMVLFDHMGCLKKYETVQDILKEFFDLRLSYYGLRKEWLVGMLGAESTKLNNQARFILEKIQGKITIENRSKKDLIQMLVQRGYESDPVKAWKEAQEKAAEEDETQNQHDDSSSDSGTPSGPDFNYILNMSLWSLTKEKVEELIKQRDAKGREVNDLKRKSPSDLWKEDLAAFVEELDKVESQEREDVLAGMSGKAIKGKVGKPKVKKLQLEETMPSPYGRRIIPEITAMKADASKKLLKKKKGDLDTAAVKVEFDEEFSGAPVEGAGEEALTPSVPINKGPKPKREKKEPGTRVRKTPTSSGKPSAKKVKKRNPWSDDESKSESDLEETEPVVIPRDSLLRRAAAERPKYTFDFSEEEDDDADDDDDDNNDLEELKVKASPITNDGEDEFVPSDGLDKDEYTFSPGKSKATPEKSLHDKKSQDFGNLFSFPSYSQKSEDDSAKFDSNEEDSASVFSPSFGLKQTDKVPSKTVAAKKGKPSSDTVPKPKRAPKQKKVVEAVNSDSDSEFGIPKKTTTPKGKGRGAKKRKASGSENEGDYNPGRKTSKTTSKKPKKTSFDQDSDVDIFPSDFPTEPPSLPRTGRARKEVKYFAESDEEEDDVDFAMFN
Description: In vitro ATPase activity of TOP2B (coupled assay). In kind it is biochemical. Particulars: for SRbeta (SRTOP2B), TOP2 ATPase activity: TOP2A IC50 divided by TOP2B IC50; for IC50: n=3. As for the experimental part: Topoisomerase proteins were diluted to 500 nM in storage buffer containing 20 mM HEPES pH 7.5, 500 mM NaCl, 0.5 mM TCEP, 25% glycerol, and 0.2 mg/mL BSA prior to use. A coupled assay was used to measure TOP2-catalyzed ATP hydrolysis in vitro[37] in Costar 96-well plates (Corning Incorporated). […] Reaction plates were pre-warmed to 30 °C for 5 min and ATP was added last to initiate the reaction. The reaction plate was placed in a CLARIOstarPlus plate reader (BMG Labtech) to measure NADH fluorescence at 30 °C every 30 s over 120 cycles using a 340-60 excitation filter and a 480-100 emission filter. Background fluorescence signals calculated from wells containing no ATP were subtracted from each measurement. The slope of NADH fluorescence decay in each well was calculated using the MARS software (BMG Labtech) and reaction wells that lacked topoisomerase inhibitor to account for photobleaching of NADH fluorescence served as background subtraction. Each presented data point was obtained from distinct sample. Values were normalized to untreated controls and plotted as a function of inhibitor concentration to determine IC50 values using Prism 9 (GraphPad).

[2] abbreviates: compound alone 0.01 µM, Suppl.Fig.4.
Where [3] appears, read: compound alone 0.1 µM, Suppl.Fig.4.
The mark [4] stands for this setting: compound alone 1 µM, Suppl.Fig.4.
Where [5] appears, read: compound alone 10 µM, Suppl.Fig.4.
[6] abbreviates: 0.03125 μM, independent replicates, read-out: Normalized % TOP2B activity, ATPase.
[7] abbreviates: 0.0625 μM, independent replicates, read-out: Normalized % TOP2B activity, ATPase.
[8] abbreviates: 0.125 μM, independent replicates, read-out: Normalized % TOP2B activity, ATPase.
Where [9] appears, read: 0.25 μM, independent replicates, read-out: Normalized % TOP2B activity, ATPase.
Setting [10] is: 0.5 μM, independent replicates, read-out: Normalized % TOP2B activity, ATPase.
[11] abbreviates: 1 μM, independent replicates, read-out: Normalized % TOP2B activity, ATPase.
Setting [12] is: 2 μM, independent replicates, read-out: Normalized % TOP2B activity, ATPase.
The mark [13] stands for this setting: 4 μM, independent replicates, read-out: Normalized % TOP2B activity, ATPase.
[14] abbreviates: 8 μM, independent replicates, read-out: Normalized % TOP2B activity, ATPase.

Several values for one entry are separate records, joined by “and”; a condition that tells them apart may be missing. Equal entries are not always repeated. Where two headings read alike, the source gives them in different places. Where only a bound is given, the exact number is not on record here.

Consider `CCCc1cc(=O)oc2c(C(=O)N3CCCc4ccccc43)c(OCCO)ccc12` [5c], for which the “LTC = lowest toxic concentration” value in data set [1] stood at 100 µM. In addition, the “LDH release (inherent toxicity), mean of independent replicates” value (shortened to “LDH release (inherent toxicity), mean”) in data set [1] (setting [2]) is 14.5952; in data set [1] (setting [3]), 14.7832; in data set [1] (setting [4]), 14.0641; in data set [1] (setting [5]), 18.571; in data set [1] (compound alone 30 µM, Suppl.Fig.4), 18.0914; in data set [1] (compound alone 100 µM, Suppl.Fig.4), 21.5856. Also, the remaining activity at 0.03125 µM on recombinant human TOP2B (setting [6]) worked out at 99.9%. Further, on recombinant human TOP2B (setting [7]), the remaining activity at 0.0625 µM was 98.5%. Moreover, on recombinant human TOP2B (setting [8]), the remaining activity at 0.125 µM was 96.8%. Besides, the remaining activity at 0.25 µM at recombinant human TOP2B (setting [9]) is 89.9%. Besides, the remaining activity at 0.5 µM at recombinant human TOP2B (setting [10]) is 77%. For the same compound, the remaining activity at 1 µM on recombinant human TOP2B (setting [11]) is 61.7%. On recombinant human TOP2B (setting [12]), the remaining activity at 2 µM was found to be 39.1%. At recombinant human TOP2B (setting [13]), the remaining activity at 4 µM stood at 16.4%. Also, at recombinant human TOP2B (setting [14]), the remaining activity at 8 µM amounted to 6.04%. Moreover, the “SRbeta (SRTOP2B), TOP2 ATPase activity” value on recombinant human TOP2B turned out to be 3.8. Moreover, on recombinant human TOP2B, the half-inhibitory concentration (IC50) is 400 nM and 410 nM.

For the compound `CCCc1cc(=O)oc2c(C(=O)N3CCCc4ccccc43)c(OC)cc(OC)c12` [BNS-22], the “LTC = lowest toxic concentration” value in data set [1] is more than 10 µM. The “LDH release (inherent toxicity), mean” value in data set [1] (setting [2]) is recorded as 12.6739; in data set [1] (setting [3]), 12.9938; in data set [1] (setting [4]), 12.9269; in data set [1] (compound alone 3 µM, Suppl.Fig.4) it was 14.5033; in data set [1] (setting [5]) it was 16.9772. In addition, the “Normalized % TOP2B activity, ATPase” value on recombinant human TOP2B (0.03125 μM, independent replicates) is 92.74% and 92.18% and 98.3%; at recombinant human TOP2B (0.0625 μM, independent replicates), 92.24% and 94.66% and 102.1588%; on recombinant human TOP2B (0.125 μM, independent replicates), 100.3668% and 84.21% and 108.4459%; on recombinant human TOP2B (0.25 μM, independent replicates), 91.2179% and 87.24% and 97.62%; at recombinant human TOP2B (0.5 μM, independent replicates), 80.5% and 76.19% and 88.45%; on recombinant human TOP2B (1 μM, independent replicates), 58.26% and 48.84% and 67.64%. The “Normalized % TOP2B activity, ATPase” value on recombinant human TOP2B (2 μM, independent replicates) was 31.308% and 30.02% and 38.85%; at recombinant human TOP2B (4 μM, independent replicates) it was 10.88% and 8.636% and 13.51%; on recombinant human TOP2B (8 μM, independent replicates) it was 2.82% and 1.793% and 10.43%; on recombinant human TOP2B (16 μM, independent replicates), 1.695% and 1.187% and 0.8652%; on recombinant human TOP2B (32 μM, independent replicates), 0.8806% and 0.9028% and 0.7954%. Also, at recombinant human TOP2B (ATP hydrolysis and DNA decatenation), the “selectivity ratio in favour of TOP2B (SRTOP2B)” value is listed as 1.5–1.6. Moreover, the “SRbeta (SRTOP2B), TOP2 ATPase activity” value at recombinant human TOP2B was determined as 1.5. Besides, on recombinant human TOP2B, the IC50 turned out to be 870 nM.

For `C[C@@H](CN1CC(=O)NC(=O)C1)N1CC(=O)NC(=O)C1` [dexrazoxane], at recombinant human TOP2B (setting [6]), the remaining activity at 0.03125 µM came to 97.9%. In addition, the remaining activity at 0.0625 µM at recombinant human TOP2B (setting [7]) is 99.9%. Besides, on recombinant human TOP2B (setting [8]), the remaining activity at 0.125 µM was determined as 96.3%. On recombinant human TOP2B (setting [9]), the remaining activity at 0.25 µM worked out at 88.7%. The remaining activity at 0.5 µM on recombinant human TOP2B (setting [10]) was 80.9%. Besides, the remaining activity at 1 µM on recombinant human TOP2B (setting [11]) was found to be 74.8%. Also, the remaining activity at 2 µM on recombinant human TOP2B (setting [12]) is 68.4%. Besides, the remaining activity at 4 µM on recombinant human TOP2B (setting [13]) stood at 45%. Further, at recombinant human TOP2B (setting [14]), the remaining activity at 8 µM was determined as 24.3%. For the same compound, on recombinant human TOP2B (16 μM, independent replicates, read-out: Normalized % TOP2B activity, ATPase), the remaining activity at 16 µM stood at 14.6%. Also, the remaining activity at 32 µM at recombinant human TOP2B (32 μM, independent replicates, read-out: Normalized % TOP2B activity, ATPase) turned out to be 13.2%. Further, the “relative inhibition of TOP2A vs TOP2B” value on recombinant human TOP2B (ATPase) is recorded as “inhibits ATP hydrolysis for both isoforms with equal potency”. At recombinant human TOP2B, the “SRbeta (SRTOP2B), TOP2 ATPase activity” value was 0.89 and the half-inhibitory concentration (IC50) was found to be 2550 nM.

Regarding `CCCc1cc(=O)oc2c(C(=O)N3CCCc4ccccc43)c(OCCN3CCN(C)CC3)ccc12` [topobexin (9)], the “LTC = lowest toxic concentration” value in data set [1] is more than 100 µM. Also, the “LDH release, mean” value in data set [1] (compound 100 µM alone) is recorded as 16.49 % of total LDH. Moreover, in data set [1] (compound 100 µM alone, independent replicates), the LDH release is 16.0714 % of total LDH and 14.563 % of total LDH and 13.722 % of total LDH and 21.6038 % of total LDH. Besides, the “LDH release (inherent toxicity), mean” value was 15.0001 in data set [1] (compound alone 0.01 µM, Suppl.Fig.6c); 13.7512 in data set [1] (compound alone 0.1 µM, Suppl.Fig.6c); 12.2924 in data set [1] (compound alone 1 µM, Suppl.Fig.6c); 14.4604 in data set [1] (compound alone 10 µM, Suppl.Fig.6c); 15.0547 in data set [1] (compound alone 30 µM, Suppl.Fig.6c); 16.49 in data set [1] (compound alone 100 µM, Suppl.Fig.6c). Further, at recombinant human TOP2B (0.0625 μM, independent replicates, normalized to 0 drug, read-out: Normalized % TOP2B activity), the remaining activity at 0.0625 µM was 96.9%. Moreover, the remaining activity at 0.125 µM on recombinant human TOP2B (0.125 μM, independent replicates, normalized to 0 drug, read-out: Normalized % TOP2B activity) worked out at 95.3%. On recombinant human TOP2B (0.25 μM, independent replicates, normalized to 0 drug, read-out: Normalized % TOP2B activity), the remaining activity at 0.25 µM worked out at 95.6%. Moreover, the remaining activity at 0.5 µM at recombinant human TOP2B (0.5 μM, independent replicates, normalized to 0 drug, read-out: Normalized % TOP2B activity) turned out to be 87%. Moreover, the remaining activity at 1 µM at recombinant human TOP2B (1 μM, independent replicates, normalized to 0 drug, read-out: Normalized % TOP2B activity) came out at 74%; on recombinant human TOP2B (setting [11]) it was 16.4%. The remaining activity at 2 µM at recombinant human TOP2B (2 μM, independent replicates, normalized to 0 drug, read-out: Normalized % TOP2B activity) came out at 48.9%. At recombinant human TOP2B (4 μM, independent replicates, normalized to 0 drug, read-out: Normalized % TOP2B activity), the remaining activity at 4 µM is 23.7%. In addition, the remaining activity at 8 µM on recombinant human TOP2B (8 μM, independent replicates, normalized to 0 drug, read-out: Normalized % TOP2B activity) turned out to be 9.64%. Further, the “SRbeta (SRTOP2B), TOP2 ATPase activity” value on recombinant human TOP2B was determined as 12. For the same compound, the concentration for half-maximal inhibition (IC50) at recombinant human TOP2B was found to be 350 nM.

One may read the IC50 as the concentration at which inhibition is half-maximal.
